{"source": "patent US7354574B2", "about": "“Treatment of ocular disease” (Advanced Ocular Systems Limited, priority 2002, dated 2008)", "origin": "cited, not measured here", "conditions": "administered systemically", "data": [{"molecule": "C=CC[C@@H]1/C=C(\\C)C[C@H](C)C[C@H](OC)[C@H]2O[C@@](O)(C(=O)C(=O)N3CCCC[C@H]3C(=O)O[C@H](/C(C)=C/[C@@H]3CC[C@@H](O)[C@H](OC)C3)[C@H](C)[C@@H](O)CC1=O)[C@H](C)C[C@@H]2OC", "note": "[tacrolimus]", "values": [{"measurement": "Renal and hepatic toxicity", "result": "significant renal and hepatic toxicity"}]}]}
